Where two headings read alike, the source gives them in different places.
Legend:
[1] = tested on: HCV genotype 1b replicon; assay: HCV Replicon Assay; format: cell-based
Procedure: Huh-7-derived cell line (Zluc) that harbors an HCV genotype 1b replicon and a luciferase reporter gene was grown in Dulbecco's Modified Eagle Medium (DMEM) supplemented with 10% fetal bovine serum, 2 mM GlutaMAX, 1% MEM nonessential amino acids, 100 IU/mL penicillin, 100 μg/mL streptomycin, and 0.5 mg/mL Geneticin® (G418). For dose response testing the cells were seeded in 96-well plates at 7.5×10^3 cells per well in a volume of 50 μL, and incubated at 37° C./5% CO2. Drug solutions were made up freshly in Huh-7 media as 2× stocks. Ten additional 5-fold dilutions were prepared from these stocks in DMEM without G418. At least three hours after Zluc cells were seeded, drug treatment was initiated by adding 50 μL of drug dilutions to the plates in duplicate. Final concentrations of drug ranged from 100 μM to […]. Cells were then incubated at 37° C./5% CO2. Alternatively, compounds were tested at two concentrations (1 μM and 10 μM). […] For this, media was removed from the plates via gentle tapping. Fifty microliters of ONE-glo luciferase assay reagent was added to each well. The plates were shaken gently for 3 min at room temperature and luminescence was measured on a Victor^3 V 1420 multilabel counter (Perkin Elmer) with a 1 second read time using a 700 nm cut-off filter. The EC50 values were calculated from dose response curves from the resulting best-fit equations determined by Microsoft Excel and XLfit 4.1 software. When screening at two fixed concentrations, the results were expressed as % inhibition at 1 μM and 10 μM.

[2] = tested on: Zluc cells; assay: Cytotoxicity evaluation (CellTiter-Blue Cell Viability Assay); format: cell-based, human; conditions: read-out: HCV Replicon CC50
[3] = Stability in simulated intestinal fluid; format: in vitro ADME; conditions: 100 μM, 2 hours at 37° C.; percent of peak area at time zero
Procedure: Stability in Simulated Gastric and Intestinal Fluids: Simulated gastric and intestinal fluids containing pepsin and pancreatin respectively were prepared according to the U.S. Pharmacopoeia USP291 procedure (www.pharmacopeia.cn/v29240/usp29nf24s0_ris1s126.html). Test compound (final concentration 100 μM) was incubated in duplicate in the appropriate fluid for 2 hours at 37° C. The samples were quenched with 200 μl cold acetonitrile, vortexed for 30 seconds and then centrifuged at 16,100 g for 10 min. The supernatants were analyzed by HPLC on a C-18 column with UV detection at 252 nm. The time 0 samples were prepared by adding SGF or SIF fluid to the quenching solvent followed by the test compound. Stability of the compound was determined by peak area the test compound after incubation and calculated as percent of the peak area observed at time zero.

[4] = Stability in fresh human whole blood; format: in vitro ADME; conditions: 0.5 μM, percent unchanged test compound
Procedure: (§1) Stability in Fresh Whole Blood: Stability of test compounds were determined in fresh human whole blood with K2EDTA as the anticoagulant (stored refrigerated at 2-8° C. and used within 7 days of receipt). The experiment was conducted with three replicates for each time point. Whole blood, pre-incubated at 37° C. for 10-15 minutes, was fortified with a solution of test compound for a final concentration of 0.5 μM and mixed for 30 sec. At intervals (0, 0.5, 1 and 2 hr), three 50-μL aliquots were combined with 200 μL (each) of an ice-cold solution of the internal standard (carbutamide 500 ng/mL in acetonitrile). The samples were vortexed for 30 sec and then centrifuged at 16,100 g for 5 min. The supernatant was analyzed by LC-MS/MS. The MS peak area ratio of the test compound versus the internal standard was calculated and percent unchanged test compound was calculated for each time point using this ratio.

[5] = Stability in mouse blood; format: in vitro ADME; conditions: on ice, percent unchanged test compound
Procedure: as §1
The stability in mouse blood was determined on ice at 0, 0.5 and 1 hr as above.

[6] = Stability in human liver microsomes; format: in vitro ADME; conditions: 10 μM, 1.0 mg/mL protein, NADPH, 60 min; percent unchanged
Procedure: Stability in Liver and Intestinal Subcellular Fractions: Stability of test compounds were determined in subcellular fractions (microsomes and S9) of human liver and intestine in duplicate for each matrix. Pooled liver and intestinal microsomal, intestinal and liver S9 proteins (1.0 mg/mL), suspended in incubation buffer (100 mM potassium phosphate, pH 7.4, 5 mM MgCl2, and 0.1 mM EDTA), were preincubated for 5 min at 37° C. with 10 μM of a test compound from a 10 mM stock solution in DMSO (final DMSO concentration was 0.1%); the reaction was initiated by the addition of NADPH (3 mM final concentration). At specific times (0 and 60 min), 0.1 mL samples were taken and the reaction terminated by the addition of 4 volumes of stop solution (acetonitrile with 500 ng/mL carbutamide as an internal standard). The samples were vortexed for 30 sec and then centrifuged at 16,000 g for 10 min. 100 μL of supernatants were transferred to 96 deep-well plates preloaded with 100 μL distilled water and analyzed after mixing by LC-MS/MS. The MS peak area ratio of the test compound versus the internal standard was calculated and percent unchanged test compound over 60 minutes was calculated using this ratio.

[7] = tested on: fresh human hepatocytes; assay: Release of active metabolite in fresh human hepatocytes; format: in vitro ADME; conditions: 10 μM
Procedure: Assay for the Release of Active Metabolite in Primary Hepatocytes: Plates of fresh human and mouse hepatocytes were obtained on ice. The medium was removed and replaced with hepatocyte culture medium (William's E supplemented with penicillin-streptomycin, 1% L-glutamine, 1% insulin-transferrin-selenium and 0.1 μM Dexamethasone (Invitrogen) or with Invitro GRO HI medium complemented with Torpedo antibiotics (Celsis)). Cells were left overnight in an incubator at 37° C. to acclimatize to culture and the medium.
Hepatocyte incubations were conducted at a final volume of 0.5 mL hepatocyte culture medium/well (0.8 million cells/well for human and 0.5 million cells/well for mouse; 12 well plate no overlay, collagen coat). Culture medium from overnight incubation of cells was removed and replaced with fresh medium, pre-warmed to 37° C., containing 10 μM of test compound from a stock solution in DMSO (final DMSO concentration was 0.1%). At each specific time point, incubation medium was removed and cell monolayers were carefully washed two times with ice-cold PBS. Following the last wash, all PBS was carefully removed and 1.0 mL of extraction solution (ice-cold 70% methanol/30% water) added. Cells were scraped off and suspended in the extraction solution, transferred to 2 mL polypropylene microfuge tubes and intracellular contents extracted overnight at −20° C.
After the overnight treatment the cellular extracts were prepared by centrifugation at 16,000×g for 10 min to remove cellular debris. The remaining sample was then dried using a refrigerated centrivap concentrator. Dry extracts were reconstituted in 1000 μL of HPLC-grade water and centrifuged at 16,000×g for 10 min. Aliquots (100 μL each) of the supernatant were transferred into a 96 well plate and internal standard (4 ng/mL final concentration) was added as the internal standard (IS) for LC-MS/MS analysis.
The incubation time points were 6, 24 and 48 hours for human hepatocytes and 1, 4, 8, 12 and 24 hours for mouse hepatocytes.

[8] = tested on: Huh-7 cells; assay: Release of active metabolite in Huh-7 cells; format: in vitro ADME, human; conditions: Table 6, AUC0-72
Procedure: Assay for the Release of Active Metabolite in Huh-7 Cells. Huh-7 cells were plated in 1 mL culture medium (DMEM, containing glucose, L-glutamine and sodium pyruvate, 10% FBS, 100 IU/mL penicillin, 100 μg/mL streptomycin, 2 mM GlutaMAX, 1% MEM non-essential amino acids) at the concentration 0.8, 0.4 and 0.2 million cells per well on 6 well plates for 24, 48 and 72 hr treatment, respectively. Plated cells were incubated overnight at 37° C. in an incubator.
The following morning test compound was diluted to 20 μM from a stock solution in DMSO in fresh culture medium pre-warmed to 37° C. and 1 mL of the solution/well was added to cells. A final medium volume per well was 2.0 mL, test compound concentration in well was 10 μM and final DMSO concentration was 0.1%.
After 24, 48 or 72 hr, the medium was carefully removed and cell monolayers were washed twice with 2 mL ice-cold PBS per well. Following the last wash, all PBS was carefully removed and 1.0 mL of extraction solution (ice-cold 70% methanol) added. The plate was tightly covered with Parafilm, plastic plate cover and Parafilm again and an intracellular content was extracted at −20° C. for 24 hr.
After 24 hr extracts were transferred into polypropylene microfuge tubes and dry on a refrigerated centrivap concentrator. Dry residues were reconstituted in 250 μL of HPLC-grade water and centrifuged at 16,000×g for 10 min. Aliquots (100 μL each) of the supernatants were transferred into a 96 well plate and internal standard (4 ng/mL final concentration) was added as the internal standard (IS) for LC-MS/MS analysis.

[9] = target: T1, cathepsin A (CatA) (Homo sapiens, UniProt P10619); assay: CatA hydrolysis assay; format: in vitro ADME; conditions: for CatA hydrolysis @ 18 h: 100 μM compound, 37° C.
T1 sequence (P10619 29-326 limits assumed): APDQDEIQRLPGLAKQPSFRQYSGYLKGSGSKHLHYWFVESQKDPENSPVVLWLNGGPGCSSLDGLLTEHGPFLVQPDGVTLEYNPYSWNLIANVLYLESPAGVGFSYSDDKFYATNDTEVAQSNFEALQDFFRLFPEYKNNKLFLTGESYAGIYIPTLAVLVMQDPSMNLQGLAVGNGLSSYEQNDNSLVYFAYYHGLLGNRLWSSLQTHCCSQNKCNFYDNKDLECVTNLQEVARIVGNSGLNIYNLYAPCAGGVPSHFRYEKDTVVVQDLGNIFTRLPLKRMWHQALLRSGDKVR
T1 sequence (P10619 327-480 limits assumed): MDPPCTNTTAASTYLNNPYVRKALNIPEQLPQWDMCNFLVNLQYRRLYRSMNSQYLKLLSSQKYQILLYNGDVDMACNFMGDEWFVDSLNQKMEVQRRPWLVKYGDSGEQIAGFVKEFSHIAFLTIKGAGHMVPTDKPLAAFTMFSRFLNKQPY
Procedure: CatA, cathepsin L (CatL) and CES1 were purchased from R & D Systems (Minneapolis, Minn.). Prior to the enzymatic hydrolysis reactions, CatA was activated according to the manufacturer's instruction. Briefly, CatA (0.05 μg/μL) was incubated with CatL (0.005 μg/μL) for 30 min at 37° C. in 25 mM MES pH 6.0 containing 5 mM DTT. The reaction was stopped by addition of the CatL specific inhibitor E64 (10 μM).
The CatA assay was performed at 37° C. The reaction mixture contained 25 mM MES buffer pH 6.0, 100 mM NaCl, 4 mM DTT and 100 μM of the compound. The reaction was started by addition of the activated CatA enzyme to a final concentration of 0.005 μg/μL. One hundred-μL aliquots were taken after 0.5 min, 3 hrs and 18 hrs of incubation. Reactions were stopped by mixing the sample with an equal volume of ice-cold methanol, and were loaded on a HPLC for analysis.
(§2) Samples were analyzed by HPLC using 5 μC-18, 4.6×250 mm Phenomenex® Columbus column (Phenomenex USA, CA). The mobile phase consisted of buffer A (25 mM potassium phosphate with 5 mM tetrabutylammonium dihydrogen phosphate pH 6.3) and buffer B (100% methanol).

[10] = target: T2, carboxylesterase 1 (CES1) (Homo sapiens, UniProt P23141); assay: CES1 hydrolysis assay; conditions: 100 μM compound, 37° C.
T2 sequence (P23141 18-567): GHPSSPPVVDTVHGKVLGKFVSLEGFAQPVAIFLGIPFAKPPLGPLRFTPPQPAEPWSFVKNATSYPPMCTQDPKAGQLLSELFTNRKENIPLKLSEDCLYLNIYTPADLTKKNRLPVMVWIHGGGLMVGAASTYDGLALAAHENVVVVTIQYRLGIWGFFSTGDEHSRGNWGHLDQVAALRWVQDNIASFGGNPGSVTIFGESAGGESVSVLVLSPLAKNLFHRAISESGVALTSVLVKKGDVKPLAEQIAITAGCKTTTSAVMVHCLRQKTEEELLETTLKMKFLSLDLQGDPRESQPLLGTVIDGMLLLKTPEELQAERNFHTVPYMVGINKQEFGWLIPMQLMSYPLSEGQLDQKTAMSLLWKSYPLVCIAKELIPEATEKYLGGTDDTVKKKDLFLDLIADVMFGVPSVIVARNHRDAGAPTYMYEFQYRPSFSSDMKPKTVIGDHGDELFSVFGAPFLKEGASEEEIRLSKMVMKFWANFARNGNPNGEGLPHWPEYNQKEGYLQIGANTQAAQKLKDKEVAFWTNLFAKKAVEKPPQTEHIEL
Procedure: (§3) CES1 assay was performed at 37° C. in the reaction mixture containing 50 mM Tris/HCl buffer pH 7.5 and 100 μM of the compound. Reaction was started by addition of the CES1 to the final concentration 0.01 μg/mL. 100 μL aliquots were taken after 0.5 min, 3 hrs and 21 hrs of the incubation and the reaction was stopped by mixing with 100 μl of the ice-cold methanol prior to HPLC analysis.
as §2

[11] = Liver TP (Table 6); format: in vivo; conditions: liver triphosphate, species and dose not stated
[12] = target: T2, carboxylesterase 1 (CES1)
Procedure: as §3, §2

Structure (SMILES) | EC50 ([1]; Zluc (Huh-7-derived) cells, HCV genotype 1b replicon, luciferase reporter, 72 hours, read-out: HCV Replicon EC50) [nM] | CC50 [2] [nM] | Stability SIF [3] [%] | Stability WB_Human (37° C.; 2 hr) [4] [%] | Stability WB_Mouse (ice; 1 hr) [5] [%] | Stability HLM (1 hr) [6] [%] | FHH TP AUC (pmol · hr/mill cells) [7] [pmol · hr/mill cells] | EC50 ([1]; Hepatitis C virus, Huh-7, Table 6, genotype 1b HCV replicon-bearing Huh-7 cells, read-out: EC50) [nM] | Huh-7 pmol*hr/10^6 cells AUC0-72 [8] [pmol*hr/10^6 cells] | CatA hydrolysis @ 18 h [9] [% @] | CatA cleavage efficiency versus RP diastereoisomer ([9]; GS-7977 (SP) relative to PSI-7976 (RP)) [times] | CES1 hydrolysis 3 h ([10]; 3 h) | CES1 hydrolysis 21 h ([10]; 21 h) [%/21 h] | EC50 ([1]; Table 6, genotype 1b HCV replicon-bearing Huh-7 cells, read-out: EC50) [nM] | Liver TP [11] [pmol·h/g] | Hydrolysis by CES1 (in words) [12]
CCOc1nc(N)nc2c1ncn2[C@@H]1O[C@@H]2COP(=O)(NCCC(=O)OC(C)C)O[C@H]2[C@@]1(C)F (single isomer, unassigned) [Compound 2 Diastereomer 2] | 250 to 1000 | > 50000 | 91 | 91 | 60 | 5.7 | 336 | – | – | – | – | – | – | – | – | –
CC(C)OC(=O)[C@H](C)N[P@](=O)(OC[C@H]1O[C@@H](n2ccc(=O)[nH]c2=O)[C@](C)(F)[C@@H]1O)Oc1ccccc1 (single isomer, unassigned) [GS-7977] | – | – | – | – | – | – | – | 250 | 63555 | 100 | 10 | 12%/3 h; | 15 | – | – | –
CC(C)OC(=O)[C@H](C)N[P@@](=O)(OC[C@H]1O[C@@H](n2ccc(=O)[nH]c2=O)[C@](C)(F)[C@@H]1O)Oc1ccccc1 [PSI-7976] | – | – | – | – | – | – | – | – | 6527 | 10 | – | – | – | 2080 | 310 | preferentially hydrolyzed
